Assay results published in publication PMC4057637, “Efficacy of novel antibacterial compounds targeting histidine kinase YycG protein” (Applied Microbiology and Biotechnology, 2014).

Key:
[1] = test system: S. epidermidis ATCC 35984; assay: Kinetics of killing planktonic S. epidermidis; format: cell-based; conditions: for effect on growth in initial treatment phase: 1/4MIC (0.38 μM) and 1/2MIC (0.75 μM), 2 to 6 h
Experimental: An overnight culture of S. epidermidis ATCC 35984 was inoculated into 20 ml of fresh MH broth at a 1:200 dilution (10^6 CFU/ml). […] Every 2 h, 100 μl of the culture was diluted and spread on agar plates. Viable bacteria (CFU) were counted and the rate and extent of killing were determined by plotting CFU/ml against time (D’Arezzo et al. [2012]; Lee et al. [2008]). This experiment was independently repeated three times.

[2] = test system: 24-h biofilms of S. epidermidis ATCC 35984; assay: Rabbit subcutaneous S. epidermidis biofilm infection model; format: in vivo, New Zealand White rabbits; conditions: 6.3 μM (4 × MIC), 1 ml local injection at 0, 24, 48 h; 72 h exposure
Experimental: To test the effectiveness in vivo of H2-74 and H2-81, 24-h biofilms of S. epidermidis grown on polyethylene disks were imbedded subcutaneously into the New Zealand White rabbits and treated with the derivatives for 72 h in a modification of the method used previously (He et al. [2011]). Disks were cut from polyethylene 96-well plates (8 mm diameter, 1 mm thickness), sterilized with 75 % ethanol and placed in a Petri dish (100 mm diameter). An overnight culture of S. epidermidis ATCC 35984 (20 ml) was inoculated into the dish and incubated at 37 °C for 24 h. The disks covered with biofilms were then implanted subcutaneously in female New Zealand White rabbits (2.0–2.5 kg) that had been anesthetized with pentobarbital sodium (5 mg/kg i.v.). Four incisions (10 mm) were made on the back of the rabbit along the spine bilaterally after removal of fur, and the sub cutis was carefully dissected to form a 2-cm × 3-cm cavity. Two biofilm-covered polyethylene disks were implanted into each cavity, and to minimize the effect of between-animal variation, four different treatments were given locally to each rabbit.
Vancomycin (128 mg/l) and 0.1 % DMSO were administered as the controls. Twenty-four hours after the last treatment, the rabbits were euthanized and the implants were taken out with sterile forceps. Biofilms were scraped from the disks, and the viable bacteria were determined by CFU counting, as previously described (He et al. [2011]). All animals were housed and used in compliance with the guidelines of the Institute of Animal Care and Use Committee, and the protocol was approved by the committee.

Compound	effect on growth in initial treatment phase [1]	viable cells ([1]; 2 × MIC (3.1 μM), 12 h)	viable cells ([1]; 4 × MIC (6.3 μM), 10 h)	viable bacteria recovered from implanted disks [2]	CFU remaining ([1]; 4 × MIC, 10 h, as restated in discussion)
O=C(O)COc1ccc(C=C2SC(=Nc3ccc(Cl)cc3)N(c3ccc(Cl)cc3)C2=O)cc1 [H2-74, 2-{4-{[3-(4-chlorophenyl)-2-[(4-chlorophenyl)imino]-4-oxothiazolidin-5-ylidene}methyl}phenoxy}acetic acid]	inhibited the growth of S. epidermidis	3.2 × 10^3 CFU/ml	more than 3.1 × 10^2 CFU/ml	2.91 ± 0.42 log10 CFU/cm^2	
O=C(O)c1ccc(-c2ccc(/C=C3\S/C(=N\c4ccccc4)N(c4ccc(F)cc4)C3=O)s2)cc1 [H2-81, 4-{5-{{3-(4-fluorophenyl)-2-[(4-phenyl)imino]-4-oxothiazolidin-5-ylidene}methyl}thiophene-2-yl}benzoic acid]	inhibited the growth of S. epidermidis	less than 3 × 10^2 CFU/ml	< 10 CFU/ml	2.18 log10 CFU/cm^2	~ 10 CFU
